The values below come from patent US8530404B2, “Compounds and methods for treatment of cancer” (FibroGen, Inc., priority 2005, dated 2013).

Like-named read-outs stand apart in the source and are kept apart here.

The subject of assay [1] is NDRG1 gene expression. Description: In vivo NDRG1 gene expression in Swiss Webster mice (quantitative PCR). The note with it: Mus musculus, iv, 4 h, read-out: fold change in NDRG1 mRNA level. The gist of the method:
(§1)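 Male Swiss Webster mice (25 g) given single i.v. tail-vein dose of 60 mg/kg; kidneys taken 4 h later. mRNA measured by TaqMan qPCR, normalized to 18S rRNA, expressed as fold change versus untreated controls.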

The test system of assay [2] is BNIP3L gene expression. Description: In vivo BNIP3L gene expression in Swiss Webster mice (quantitative PCR). The note with it: Mus musculus, iv, 4 h, single 60 mg/kg i.v. dose, four hours after administration, normalized to 18S. The gist of the method: as §1
Assay [3] relates to OVCAR3 ovarian tumors. Description: Subcutaneous OVCAR3 ovarian tumor xenograft in SCID mice (Example 7). Type of assay: in vivo, mouse. The note with it: 60 mg/kg; study end (day 29); FIG. 2. Here is the method:
The experiment was conducted essentially as described above in Example 3, except that the tumors of GFP-transfected H460 cells were replaced with OVCAR3 ovarian tumors. […] FIG. 2 is a Kruskal-Wallis box plot. The central bar within each box indicates the median value for the group, the limits of the various boxes and whiskers indicate group quartiles within the total distribution of values determined in this study.

Assay [4] has as its system human H-460-GFP lung tumors. Nature of the assay: Orthotopically implanted human H-460-GFP lung tumor mouse xenograft, survival and metastasis (Example 3). The conditions noted are these: 20 mg/kg. Type of assay: in vivo. Here is the method:
To examine the effect of methods and compounds of the present invention in a metastatic model of tumor progression, compounds of the invention were administered to orthotopically implanted H-460-GFP xenografted animals. Tumor models employing surgical orthotopic implantation (SOI) into the organ of origin of the original tumor are regarded as representative of cancer progression and metastasis in humans. Orthotopic implantation of H-460 increases the rate of tumor metastasis.
This experiment is carried out as described in Example 1 above, with the following modifications. To aid in identification and scoring of metastasis, the human H-460 lung cancer cell line was replaced by genetically-engineered tumors of GFP-transfected H-460 cells. 1-2 mm^3 H460-GFP lung tumor fragments were implanted by surgical orthotopic implantation (SOI) and sutured directly into lung tissue. (Yang et al., (1998) Cancer Res 58:4217-4221.) Dosing was initiated immediately after successful confirmation of tumor take by fluorescent GFP imaging (˜5 days following tumor implantation). Doxorubicin (DOX, 7.5 mg/kg, i.v. administration) was used as a chemotherapy control, and was administered on treatment days 3, 7, and 11.
In addition to weekly caliper measurement of primary tumor size, GFP imaging was performed on animals to monitor primary tumor progression and metastasis, starting the first day of treatment. Study endpoints were reached when an average tumor size of 2 cc or three morbid mice appear in any one group, whichever occurs first, regardless of treatment duration. Each animal was checked daily for mortality or signs of morbidity. Morbid animals were frozen. All animals, including dead animals, were examined by GFP imaging for primary tumor and metastasis at necropsy. Imaging and caliper measurements were used to determine the effects of treatment. Primary tumors were excised, measured and weighed at necropsy. Blood samples were taken during terminal sacrifice and complete blood counts (CBC) and reticulocyte analysis were performed.
Tumor metastasis is associated with increased morbidity and mortality in humans with metastatic cancer and in animal models of metastatic cancer. […] The increased morbidity and mortality were recorded and animals were preserved for subsequent necropsy. The study was terminated after >3 animals were found morbid in the vehicle group on treatment day 14, at which point the remaining animals were sacrificed to evaluate and compare tumor progression in the various treatment groups.
To determine metastatic frequency, the thoracic and abdominal cavities of animals were examined by fluorescent imaging.
Background: A xenograft is tissue or cells of one species grown in another, often human tumour cells in immunodeficient mice.

For `Cc1nc(C(=O)NCC(=O)O)c(O)c2ccc(Oc3ccccc3)cc12` [Compound D, [(4-Hydroxy-1-methyl-7-phenoxy-isoquinoline-3-carbonyl)-amino]-acetic acid], the fold induction at 60 mg/kg is 3.6 in assay [1]; 5 in assay [2] (read-out: fold change in BNIP3L mRNA level, kidney); 1.2 in assay [2] (read-out: fold change in BNIP3L mRNA level, liver). In addition, the “reduction of median tumor volume compared to vehicle-treated control” value in assay [3] was 5%. In assay [4] (vehicle 9/10), the “Metastatic Incidence (proportion of animals exhibiting mediastinal lymph node metastasis)” value is 9/10. Also, the “proportion of surviving animals” value is on record as 10/10 in assay [4] (treatment day 9); 9/10 in assay [4] (treatment day 11); 9/10 in assay [4] (treatment day 12); 9/10 in assay [4] (treatment day 13); 9/10 in assay [4] (treatment day 14).
